Source: publication PMC12757955, “A nonavalent BODIPY with a multivalent arrangement of α-mannosides enables lectins recognition in fluorescence-based assays” (RSC Chemical Biology, 2025)

Columns and labels:
ConA [1] = molecular target: T1, ConA (Canavalia ensiformis, UniProt P02866)
T1 construct: purchased Sigma Aldrich L7647-100MG
Procedure: Accordingly, preliminary agglutination experiments were performed by following a previously reported protocol,[28] thus expecting aggregation of lectin with the mannosylated BODIPYs driven by the molecular recognition of the mannose residues on the fluorescent probes. Accordingly, Tris-BODIPY-OH was used as a negative control. The changes in the absorption (λ = 490 nm) of the solutions of the glycoBODIPYs treated with a fixed concentration of ConA (20 µM in HEPES 25 mM, pH 7.6, 1 mM CaCl2, 1 mM MnCl2) were monitored over time (0–30 min, Fig. 3A).
Data are normalized according to the maximum optical density value.
A solution of ConA (20 µM) in the buffer (HEPES 25 mM pH 7.6, 1 mM CaCl2, 1 mM MnCl2) was prepared. In a 96-well plate (Microplate, 96 wells, PS, F-BOTTOM (CHIMNEY WELL), clear, non-binding) were placed 100 µL of the 20 µM solution of each BODIPY, then 100 µL of the solution of ConA was added. The mixture was gently shaken for 10 minutes, then the optical density at λ = 490 nm was measured every minute for 30 minutes. The measurements were carried out in triplicate.

concanavalin A (ConA) = molecular target: T2, concanavalin A (ConA) (Canavalia ensiformis, UniProt P02866); experiment: Fluorescence polarization (FP) titration of BODIPY probes with ConA; format: binding; settings: probe 0.5 µM, increasing ConA
T2 construct: purchased Sigma Aldrich L7647-100MG
Procedure: All experiments were conducted at 25 °C.
(§1) All experiments were performed at room temperature (25 °C).

ConA [2] = molecular target: T1, ConA; format: binding; settings: FCS, probe 500 nM, ConA 50 nM
Procedure: 500 nM solution of each dye in the absence or presence of 50 nM ConA was placed in a glass-bottom ibidi 18-well µ-slides, precoated with albumin (Sigma Aldrich) to reduce dye adsorption to the surface. FCS experiments were performed with an Abberior Instruments microscope in the confocal mode using the Olympus UPlanSApo 60×/1.2 water immersion objective and steered through the Imspector software. Fluorescence was excited by a 561 nm pulsed excitation laser at an average power of around 10 µW, and detected by an avalanche photodiode through a 0.9 Airy-unit pinhole and a 580–630 nm emission filter (Semrock). Intensity fluctuations were acquired in 2 µs bins for 15–120 seconds at least 5 times per sample. The intensity traces were autocorrelated and further analysed with the open source FoCuS-scan software (https://github.com/dwaithe/FCS_scanning_correlator)[41] employing the 3D-diffusion model (fits in Fig. 8) with the aspect ratio of the optical point-spread-function and anomalous diffusion exponent fixed to 10 and 0.9, respectively.

ConA [3] = molecular target: T1, ConA; format: binding; settings: BODIPY 500 nM, ConA 500 nM
Procedure: Accordingly, FLIM was used in this work to directly visualize the formation of the glycoBODIPY/ConA complexes. […] The color scale in the images corresponds to the dye lifetime measured by FLIM for each pixel in the image.
Fig. 4 FLIM images measured for: (left panels) the (free) BODIPY solutions 500 nM in HEPES 25 mM pH 7.6, 1 mM CaCl2, 1 mM MnCl2 and for (right panels) solutions of the BODIPYs (500 nM) combined with ConA (500 nM in HEPES 25 mM pH 7.6, 1 mM CaCl2, 1 mM MnCl2).
FLIM was performed at room temperature (20 °C) on a Nikon Ti AX-R NSPARC confocal microscope using a Nikon Plan Apo λD 100× oil immersion objective (NA = 1.45). The microscope is equipped with a two-channel PicoQuant FLIM compact module system. Images of 1024 × 1024 pixels were acquired using a 488 nm pulsed laser for excitation and recording photons of fluorescence emission at a wavelength of 620 ± 50 nm for 90 s at a frequency of 25 MHz through a PMA Hybrid single photon counting module and a MultiHarp 150 multichannel event timer. Lifetime histograms were calculated and analyzed using SymphoTime©. Samples were inserted into LabteK chambers, and the images were acquired at 10 µm from the coverslip to avoid interactions of the dye with the surface of the coverslip.

ConA [4] = molecular target: T1, ConA; experiment: Competitive fluorescence polarization assay (displacement of Man9-BODIPY from ConA); format: binding
Procedure: Titration experiments allowed us to define the concentration of ConA to be used in a competitive displacement assay, which was set to 2 µM.
The fluorescence polarization is expressed in millipolarization (mP) units (A).
as §1

Structure (SMILES): CO[C@H]1O[C@H](CO)[C@@H](O)[C@H](O)[C@@H]1O [α-O-methyl-D-mannopyranoside]
- Deagglutination of glycoBODIPYs/ConA aggregates (ConA [1]; 50 mM competitor added, optical density at 490 nm): fast deagglutination process

Structure (SMILES): CC1=C(C#CCOCC(CO)(CO)CO)C(C)=[N+]2C1=C(c1ccc(-n3cc(COCC(CO)(CO)CO)nn3)cc1)c1c(C)c(C#CCOCC(CO)(CO)CO)c(C)n1[B-]2(F)F [Tris-BODIPY-OH]
- Binding to ConA in FP titration (in words) (concanavalin A (ConA)): did not bind to ConA
- Shift of the autocorrelation curve in the presence of ConA (ConA [2]): no shift was observed
- Change of fluorescence lifetime histogram in the presence of ConA (ConA [3]): the peak of the histogram is unchanged
- Change of turbidity / absorption (λ = 490 nm) over time with ConA (ConA [1]; BODIPY 20 µM solution, ConA 20 µM solution, HEPES pH 7.6, 0–30 min): No change in the absorption

Structure (SMILES): OC[C@H]1OC(O)[C@@H](O)[C@@H](O)[C@@H]1O (stereo partly drawn) [D-mannose]
- Competitive displacement of the probe (in words) (ConA [4]): competitively displaced the probe
- mP0 (ConA [4]): 113.9 ± 4.0
- mPmax (ConA [4]): 432 ± 13
